Results: ChEMBL document CHEMBL2010748, “Structure-Activity Relationship Studies of HIV-1 Integrase Oligonucleotide Inhibitors” (ACS Med Chem Lett, 2011)

Molecular target: Human immunodeficiency virus type 1 integrase (Human immunodeficiency virus 1, UniProt Q7ZJM1)
Test: Inhibition of Human immunodeficiency virus 1 integrase 3'-processing activity expressed in Escherichia coli using 21-mer DNA and Mg2+ after 2 hrs by polyacrylamide gel electrophoresis

Sequence of Human immunodeficiency virus type 1 integrase (Q7ZJM1 whole entry): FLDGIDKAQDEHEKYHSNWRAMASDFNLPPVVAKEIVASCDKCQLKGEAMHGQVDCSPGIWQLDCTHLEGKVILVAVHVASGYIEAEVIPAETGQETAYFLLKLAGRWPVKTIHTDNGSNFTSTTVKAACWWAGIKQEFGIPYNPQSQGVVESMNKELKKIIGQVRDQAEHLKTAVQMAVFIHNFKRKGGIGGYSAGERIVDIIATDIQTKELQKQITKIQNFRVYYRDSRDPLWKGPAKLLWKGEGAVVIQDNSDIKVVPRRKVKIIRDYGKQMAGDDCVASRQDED

Compound	IC50 [nM]
Cc1cn([C@H]2C[C@H](O)[C@@H](COP(=O)(O)O[C@H]3CCO[C@@H]3COP(=O)(O)O[C@H]3CCO[C@@H]3COP(=O)(O)O[C@H]3CCO[C@@H]3COP(=O)(O)O[C@H]3CCO[C@@H]3COP(=O)(O)O[C@H]3CCO[C@@H]3COP(=O)(O)O[C@H]3CCO[C@@H]3COP(=O)(O)O[C@H]3CCO[C@@H]3COP(=O)(O)O[C@H]3CCO[C@@H]3COP(=O)(O)O[C@H]3CCO[C@@H]3COP(=O)(O)O[C@H]3CCO[C@@H]3COP(=O)(O)OCCCCCCNC(=O)c3cc(Cl)c(C(=O)O)c(-c4c5cc(Cl)c(=O)c(Cl)c-5oc5c(Cl)c(O)c(Cl)cc45)c3Cl)O2)c(=O)[nH]c1=O	1200
Cc1cn([C@H]2C[C@H](OP(=O)(O)OC[C@H]3O[C@@H](n4cnc5c(=O)[nH]c(N)nc54)C[C@@H]3OP(=O)(O)OC[C@H]3O[C@@H](n4cc(C)c(=O)[nH]c4=O)C[C@@H]3OP(=O)(O)OC[C@H]3O[C@@H](n4cnc5c(=O)[nH]c(N)nc54)C[C@@H]3OP(=O)(O)OC[C@H]3O[C@@H](n4cc(C)c(=O)[nH]c4=O)C[C@@H]3O)[C@@H](COP(=O)(O)O[C@H]3CCO[C@@H]3COP(=O)(O)O[C@H]3CCO[C@@H]3COP(=O)(O)O[C@H]3CCO[C@@H]3COP(=O)(O)O[C@H]3CCO[C@@H]3COP(=O)(O)O[C@H]3CCO[C@@H]3COP(=O)(O)O[C@H]3CCO[C@@H]3COP(=O)(O)OCCCCCCNC(=O)c3cc(Cl)c(C(=O)O)c(-c4c5cc(Cl)c(=O)c(Cl)c-5oc5c(Cl)c(O)c(Cl)cc45)c3Cl)O2)c(=O)[nH]c1=O	280
Cc1cn([C@H]2C[C@H](OP(=O)(O)OC[C@H]3OCC[C@@H]3OP(=O)(O)OC[C@H]3OCC[C@@H]3OP(=O)(O)OC[C@H]3OCC[C@@H]3OP(=O)(O)OC[C@H]3OCC[C@@H]3OP(=O)(O)OC[C@H]3OCC[C@@H]3OP(=O)(O)OC[C@H]3OCC[C@@H]3OP(=O)(O)OC[C@H]3O[C@@H](n4cc(C)c(=O)[nH]c4=O)C[C@@H]3O)[C@@H](COP(=O)(O)O[C@H]3C[C@H](n4cc(C)c(=O)[nH]c4=O)O[C@@H]3COP(=O)(O)O[C@H]3C[C@H](n4cnc5c(=O)[nH]c(N)nc54)O[C@@H]3COP(=O)(O)O[C@H]3C[C@H](n4cnc5c(=O)[nH]c(N)nc54)O[C@@H]3COP(=O)(O)OCCCCCCNC(=O)c3cc(Cl)c(C(=O)O)c(-c4c5cc(Cl)c(=O)c(Cl)c-5oc5c(Cl)c(O)c(Cl)cc45)c3Cl)O2)c(=O)[nH]c1=O	250
Cc1cn([C@H]2C[C@H](O)[C@@H](COP(=O)(O)OCCCOP(=O)(O)OCCCOP(=O)(O)OCCCOP(=O)(O)OCCCOP(=O)(O)OCCCOP(=O)(O)OCCCOP(=O)(O)OCCCOP(=O)(O)OCCCOP(=O)(O)OCCCOP(=O)(O)OCCCOP(=O)(O)OCCCCCCNC(=O)c3cc(Cl)c(C(=O)O)c(-c4c5cc(Cl)c(=O)c(Cl)c-5oc5c(Cl)c(O)c(Cl)cc45)c3Cl)O2)c(=O)[nH]c1=O	1300
Cc1cn([C@H]2C[C@H](OP(=O)(O)OC[C@H]3O[C@@H](n4cnc5c(=O)[nH]c(N)nc54)C[C@@H]3OP(=O)(O)OC[C@H]3O[C@@H](n4cc(C)c(=O)[nH]c4=O)C[C@@H]3OP(=O)(O)OC[C@H]3O[C@@H](n4cnc5c(=O)[nH]c(N)nc54)C[C@@H]3OP(=O)(O)OC[C@H]3O[C@@H](n4cc(C)c(=O)[nH]c4=O)C[C@@H]3O)[C@@H](COP(=O)(O)OCCCOP(=O)(O)OCCCOP(=O)(O)OCCCOP(=O)(O)OCCCOP(=O)(O)OCCCOP(=O)(O)OCCCOP(=O)(O)OCCCCCCNC(=O)c3cc(Cl)c(C(=O)O)c(-c4c5cc(Cl)c(=O)c(Cl)c-5oc5c(Cl)c(O)c(Cl)cc45)c3Cl)O2)c(=O)[nH]c1=O	250
Cc1cn([C@H]2C[C@H](OP(=O)(O)OCCCOP(=O)(O)OCCCOP(=O)(O)OCCCOP(=O)(O)OCCCOP(=O)(O)OCCCOP(=O)(O)OCCCOP(=O)(O)OC[C@H]3O[C@@H](n4cc(C)c(=O)[nH]c4=O)C[C@@H]3O)[C@@H](COP(=O)(O)O[C@H]3C[C@H](n4cc(C)c(=O)[nH]c4=O)O[C@@H]3COP(=O)(O)O[C@H]3C[C@H](n4cnc5c(=O)[nH]c(N)nc54)O[C@@H]3COP(=O)(O)O[C@H]3C[C@H](n4cnc5c(=O)[nH]c(N)nc54)O[C@@H]3COP(=O)(O)OCCCCCCNC(=O)c3cc(Cl)c(C(=O)O)c(-c4c5cc(Cl)c(=O)c(Cl)c-5oc5c(Cl)c(O)c(Cl)cc45)c3Cl)O2)c(=O)[nH]c1=O	310
CO[C@@H]1[C@H](O)[C@@H](COP(=O)(O)O[C@H]2[C@@H](OC)[C@H](n3cnc4c(=O)[nH]c(N)nc43)O[C@@H]2COP(=O)(O)O[C@H]2[C@@H](OC)[C@H](n3ccc(=O)[nH]c3=O)O[C@@H]2COP(=O)(O)O[C@H]2[C@@H](OC)[C@H](n3cnc4c(=O)[nH]c(N)nc43)O[C@@H]2COP(=O)(O)O[C@H]2[C@@H](OC)[C@H](n3ccc(=O)[nH]c3=O)O[C@@H]2COP(=O)(O)O[C@H]2[C@@H](OC)[C@H](n3ccc(=O)[nH]c3=O)O[C@@H]2COP(=O)(O)O[C@H]2[C@@H](OC)[C@H](n3ccc(=O)[nH]c3=O)O[C@@H]2COP(=O)(O)O[C@H]2[C@@H](OC)[C@H](n3ccc(=O)[nH]c3=O)O[C@@H]2COP(=O)(O)O[C@H]2[C@@H](OC)[C@H](n3ccc(=O)[nH]c3=O)O[C@@H]2COP(=O)(O)O[C@H]2[C@@H](OC)[C@H](n3cnc4c(=O)[nH]c(N)nc43)O[C@@H]2COP(=O)(O)O[C@H]2[C@@H](OC)[C@H](n3cnc4c(=O)[nH]c(N)nc43)O[C@@H]2COP(=O)(O)OCCCCCCNC(=O)c2cc(Cl)c(C(=O)O)c(-c3c4cc(Cl)c(=O)c(Cl)c-4oc4c(Cl)c(O)c(Cl)cc34)c2Cl)O[C@H]1n1ccc(=O)[nH]c1=O	52

The next compounds have a lower IC50 than those just listed; values first:

IC50 [nM]	Compound
48	CO[C@@H]1[C@H](OP(=O)(O)OC[C@H]2O[C@@H](n3ccc(=O)[nH]c3=O)[C@H](OC)[C@@H]2OP(=O)(O)OC[C@H]2O[C@@H](n3ccc(=O)[nH]c3=O)[C@H](OC)[C@@H]2OP(=O)(O)OC[C@H]2O[C@@H](n3cnc4c(=O)[nH]c(N)nc43)[C@H](OC)[C@@H]2OP(=O)(O)OC[C@H]2O[C@@H](n3ccc(=O)[nH]c3=O)[C@H](OC)[C@@H]2OP(=O)(O)OC[C@H]2O[C@@H](n3cnc4c(=O)[nH]c(N)nc43)[C@H](OC)[C@@H]2OP(=O)(O)OC[C@H]2O[C@@H](n3ccc(=O)[nH]c3=O)[C@H](OC)[C@@H]2OP(=O)(O)OCCCCCCNC(=S)Nc2ccc(-c3c4cc(Br)c(=O)c(Br)c-4oc4c(Br)c(O)c(Br)cc34)c(C(=O)O)c2)[C@@H](COP(=O)(O)O[C@H]2[C@@H](OC)[C@H](n3ccc(=O)[nH]c3=O)O[C@@H]2COP(=O)(O)O[C@H]2[C@@H](OC)[C@H](n3ccc(=O)[nH]c3=O)O[C@@H]2COP(=O)(O)O[C@H]2[C@@H](OC)[C@H](n3cnc4c(=O)[nH]c(N)nc43)O[C@@H]2COP(=O)(O)O[C@H]2[C@@H](OC)[C@H](n3cnc4c(=O)[nH]c(N)nc43)O[C@@H]2CO)O[C@H]1n1ccc(=O)[nH]c1=O
24	Cc1cn([C@H]2C[C@H](OP(=O)(O)OC[C@H]3O[C@@H](n4cc(C)c(=O)[nH]c4=O)C[C@@H]3OP(=O)(S)OC[C@H]3O[C@@H](n4cc(C)c(=O)[nH]c4=O)C[C@@H]3OP(=O)(O)OC[C@H]3O[C@@H](n4cnc5c(=O)[nH]c(N)nc54)C[C@@H]3OP(=O)(O)OC[C@H]3O[C@@H](n4cc(C)c(=O)[nH]c4=O)C[C@@H]3OP(=O)(S)OC[C@H]3O[C@@H](n4cnc5c(=O)[nH]c(N)nc54)C[C@@H]3OP(=O)(O)OC[C@H]3O[C@@H](n4cc(C)c(=O)[nH]c4=O)C[C@@H]3OP(=O)(O)OCCCCCCNC(=S)Nc3ccc(-c4c5cc(Br)c(=O)c(Br)c-5oc5c(Br)c(O)c(Br)cc45)c(C(=O)O)c3)[C@@H](COP(=O)(O)O[C@H]3C[C@H](n4cc(C)c(=O)[nH]c4=O)O[C@@H]3COP(=O)(S)O[C@H]3C[C@H](n4cc(C)c(=O)[nH]c4=O)O[C@@H]3COP(=O)(O)O[C@H]3C[C@H](n4cnc5c(=O)[nH]c(N)nc54)O[C@@H]3COP(=O)(O)O[C@H]3C[C@H](n4cnc5c(=O)[nH]c(N)nc54)O[C@@H]3CO)O2)c(=O)[nH]c1=O (stereo partly specified)
22	Cc1cn([C@H]2C[C@H](OP(=O)(O)OC[C@H]3O[C@@H](n4cnc5c(=O)[nH]c(N)nc54)C[C@@H]3OP(=O)(O)OC[C@H]3O[C@@H](n4cc(C)c(=O)[nH]c4=O)C[C@@H]3OP(=O)(O)OC[C@H]3O[C@@H](n4cnc5c(=O)[nH]c(N)nc54)C[C@@H]3OP(=O)(O)OC[C@H]3O[C@@H](n4cc(C)c(=O)[nH]c4=O)C[C@@H]3OP(=O)(O)OCCCCCCNC(=S)Nc3ccc(-c4c5cc(Br)c(=O)c(Br)c-5oc5c(Br)c(O)c(Br)cc45)c(C(=O)O)c3)[C@@H](COP(=O)(O)O[C@H]3C[C@H](n4cc(C)c(=O)[nH]c4=O)O[C@@H]3COP(=O)(S)O[C@H]3C[C@H](n4cc(C)c(=O)[nH]c4=O)O[C@@H]3COP(=O)(S)O[C@H]3C[C@H](n4cc(C)c(=O)[nH]c4=O)O[C@@H]3COP(=O)(S)O[C@H]3C[C@H](n4cc(C)c(=O)[nH]c4=O)O[C@@H]3COP(=O)(O)O[C@H]3C[C@H](n4cnc5c(=O)[nH]c(N)nc54)O[C@@H]3COP(=O)(O)O[C@H]3C[C@H](n4cnc5c(=O)[nH]c(N)nc54)O[C@@H]3CO)O2)c(=O)[nH]c1=O (stereo partly specified)
20	Cc1cn([C@H]2C[C@H](OP(=O)(O)OC[C@H]3O[C@@H](n4cc(C)c(=O)[nH]c4=O)C[C@@H]3OP(=O)(O)OC[C@H]3O[C@@H](n4cc(C)c(=O)[nH]c4=O)C[C@@H]3OP(=O)(S)OC[C@H]3O[C@@H](n4cnc5c(=O)[nH]c(N)nc54)C[C@@H]3OP(=O)(O)OC[C@H]3O[C@@H](n4cc(C)c(=O)[nH]c4=O)C[C@@H]3OP(=O)(S)OC[C@H]3O[C@@H](n4cnc5c(=O)[nH]c(N)nc54)C[C@@H]3OP(=O)(O)OC[C@H]3O[C@@H](n4cc(C)c(=O)[nH]c4=O)C[C@@H]3OP(=O)(S)OCCCCCCNC(=S)Nc3ccc(-c4c5cc(Br)c(=O)c(Br)c-5oc5c(Br)c(O)c(Br)cc45)c(C(=O)O)c3)[C@@H](COP(=O)(O)O[C@H]3C[C@H](n4cc(C)c(=O)[nH]c4=O)O[C@@H]3COP(=O)(O)O[C@H]3C[C@H](n4cc(C)c(=O)[nH]c4=O)O[C@@H]3COP(=O)(O)O[C@H]3C[C@H](n4cnc5c(=O)[nH]c(N)nc54)O[C@@H]3COP(=O)(O)O[C@H]3C[C@H](n4cnc5c(=O)[nH]c(N)nc54)O[C@@H]3CO)O2)c(=O)[nH]c1=O (stereo partly specified)
